From patent US10562857B2 (AFASCI, Inc., priority 2015, dated 2020) come the findings set out here.

“Also recorded” adds a separate entry of the source.

Data set [1] concerns SNI rats. As to the kind of experiment: Spared nerve injury (SNI) rats, von Frey monofilament test. The following applies: for duration of elevated mechanical thresholds: 10 mg/kg P.O. In kind it is in vivo, rat. The procedure:
FIG. 3B. Mechanical pain threshold assessment (von Frey monofilament test) of SNI rats' left hindpaws. Each SNI rat received either EXAMPLE-106, -107, and -115 (each 30 mg/kg, 1 mL I.P.), or vehicle (1 mL I.P. 2% DMSO in 0.5% HPC). Sham rats also received vehicle I.P. injections. […] The sham-vehicle serves as a positive control. Thermal and mechanical pain responses were measured once every hour for 8 consecutive hours after I.P. treatment (n=8 rats per treatment group).
FIG. 4. Mechanical pain threshold assessment (von Frey monofilament test) of left hindpaws in another cohort of SNI rats. Each SNI rat received either EXAMPLE-128, -130, -132, or Z944 (as a reference compound, each 10 mg/kg, 2 mL oral gavage, P.O.). […] Mechanical pain responses were measured at pre-dosing, 1, 2, 4, and 6 hours post-treatment using von Frey monofilament test (n=8 rats per group).
In additional examples shown here, the analgesic effects were further evaluated in another rat species. Baseline thermal and mechanical thresholds of male rats (Sprague-Dawley rats, 275 g-325 g, Harlan) were taken prior to surgery; baseline thresholds were measured on the rats' left hindpaws. Thirty-two rats underwent the SNI surgery on their left hind leg; 8 rats underwent surgery without injury of the nerves as a sham group. Two weeks post-surgery, the thermal thresholds of each rat were reassessed. […] Each rat received either EXAMPLE-106, -107, -115 (each 30 mg/kg, 1 mL I.P.), or vehicle (2% DMSO in 0.5% HPC). Thermal and mechanical thresholds were measured at 1, 2, 3, 4, 5, 6, 7, and 8 hours post-treatment/dosing. […] The drug actions started around 1 hour post-injection and peaked between 2 and 3 hours, and the drug effects gradually declined to pre-treatment levels over 6-7 hours (FIGS. 3A and B).
In another cohort of SNI rats ((n=8 per group)), mechanical thresholds were measured at pre-dosing, 1, 2, 4, and 6 hours post-treatment using von Frey monofilament test.

Data set [2] relates to SNL rats. As to the kind of experiment: Spinal nerve ligation (SNL) rats, von Frey monofilament test. Format: in vivo, rat. The following applies: for order of analgesic efficacy against allodynia: SNL rats, each 30 mg/kg P.O. The protocol:
FIG. 5A. Mechanical pain threshold assessment (von Frey monofilament test) of spinal nerve ligation (SNL) rats' left hindpaws. Each SNL rat received either EXAMPLE-128, at 3, 10 or 30 mg/kg (2 mL oral gavage, P.O.), or vehicle (2 mL 2% DMSO in 0.5% HPC, P.O.). […] Mechanical pain responses were measured at 1, 2, 4 and 6 hours after treatment (n=8 rats per treatment group).
FIG. 5B. Mechanical pain threshold assessment (von Frey monofilament test) of SNL rats' left hindpaws. In the same cohort of animals, each SNL rat received either EXAMPLE-128, -130, Z944 (as a reference compound, each at 30 mg/kg, 2 mL oral gavage, P.O.), or vehicle (2 mL 2% DMSO in 0.5% HPC, P.O.). The degree of analgesia against allodynia in the order of EXAMPLE-128>Z944>EXAMPLE-130 compared to the […] group. Mechanical pain responses were measured at 1, 2, 4 and 6 hours after treatment (n=8 rats per treatment group).
The spinal nerve ligation (SNL) in rats is another commonly used neuropathic pain model (Kim & Chung, 1992). The analgesic effect of the selected EXAMPLE-128 was tested in this model. Baseline mechanical thresholds on the rats' left hindpaws of male rats (Sprague-Dawley rats, 300 g-350 g, Harlan) were taken using von Frey hair monofilaments prior to surgery. Ligation of the L5 peripheral nerve was made on the left side under anesthesia. Total 32 rats underwent surgery (n=8 rats per treatment group). Ten days post-surgery, approximately 75-85(%) reduction in mechanical pain was observed, confirming the presence of mechanical allodynia in the SNL rats. Each rat received either EXAMPLE-128 (at 3, 10 and 30 mg/kg, each dose in […], P.O.), or vehicle (2% DMSO in 0.5% HPC, […], P.O.). Mechanical thresholds were measured at 1, 2, 4, and 6 hours post-treatment/dosing. […] The drug actions started around 1 hour post-injection and peaked between 1 and 2 hours, and the drug effects gradually declined to pre-treatment levels in 6 hours (FIG. 5A). After the drug had been eliminated, and the thresholds had returned to initial mechanical allodynia, a comparative test of EXAMPLE-128 and -130 vs Z944 (each at 30 mg/kg, P.O.) was conducted in the same cohort of SNL rats. The analgesic efficacy is in the order of EXAMPLE-128>Z944>EXAMPLE-130 (FIG. 5B).

Data set [3] is described as follows: Plasma protein binding, human. Format: in vitro ADME. The conditions noted are these: for fraction unbound: read-out: PPB % (Human) (converted). The text has this: (§1) In vitro data of metabolic stability and protein binding as well as in vivo pharmacokinetic data for compounds of the invention can be generated using the techniques disclosed in, e.g., Obach, R. S. et al., J. Pharmacol. Exp. Ther. 283(1): 46-58 (1997), which is hereby incorporated by reference in its entirety. Various biological, pharmacokinetic and other properties of the compounds, including hepatic microsomal stability, determination of metabolites, binding to proteins such as plasma protein binding, and in vivo studies, including single-dose and multi-dose pharmacokinetic studies, can be determined using the protocols described in that publication and the publications cited therein. Other aspects and advantages of the present invention will become apparent from the above detailed description, as illustrated by way of example of the principles of the invention. The scope of the invention is to be defined by the claims appended hereto and their equivalents. Selected pharmacokinetic studies in vitro and in vivo in rats were performed for preferred compounds, for example EXAMPLE-128 and compared with two reference compounds ML218 and Z944 by a contract research organization (BioDuro, Inc., San Diego, US). Tables 3A and 3B summarize some of the in vitro and vivo pharmacodynamic and pharmacokinetic parameters, respectively.

Data set [4] in a line: Rat pharmacokinetics. In kind it is in vivo. The following applies: for half-life / AUC / bioavailability: plasma; for AUC: read-out: Rat PK AUCfree; for bioavailability: read-out: Rat PK F (%) bioavailability.
Source text: as §1

A short description of data set [5]: Metabolic stability in human liver microsomes. Format: in vitro ADME. The conditions noted are these: for microsomal CLint: read-out: Human Liver Microsomes Clint (μL/min/mg protein); for half-life: read-out: Human Liver Microsomes t1/2.
Source text: as §1
On the technique in general: Liver microsomes are a subcellular fraction often used to study metabolism.

The nature of data set [6]: Plasma protein binding, rat. In kind it is in vitro ADME. The following applies: for fraction unbound: read-out: PPB % (Rat) (converted).
Source text: as §1

A short description of data set [7]: Plasma stability, human. Format: in vitro ADME.
Source text: as §1

For data set [8], the system named is SNI rats. As to the kind of experiment: Spared nerve injury (SNI) rats, von Frey monofilament test. The conditions noted are these: pain in rats, 30 mg/kg, P.O. Format: in vivo, rat.
Data set [9] in a line: Metabolic stability in rat liver microsomes. The following applies: for microsomal CLint: read-out: Rat Liver Microsomes Clint (μL/min/mg protein); for half-life: read-out: Rat Liver Microsomes t1/2. Format: in vitro ADME.
Source text: as §1

Data set [10] can be described thus: Plasma stability, rat. Format: in vitro ADME.
Source text: as §1

[11] abbreviates: 10 mg/kg oral gavage, P.O., 10 mg/kg.
Where [12] appears, read: iv, read-out: Plasma t1/2 (h) iv (converted).

On to `CC(C)(C)NC(=O)CN1CCC2(CC1)C[C@H]2NC(=O)c1cc(F)cc(C(F)(F)F)c1` (single isomer, unassigned) [Example 130, (R)—N-(6-(2-(tert-Butylamino)-2-oxoethyl)-6-azaspiro[2.5]octan-1-yl)-3-fluoro-5-(trifluoromethyl)benzamide or (S)—N-(6-(2-(tert-Butylamino)-2-oxoethyl)-6-azaspiro[2.5]octan-1-yl)-3-fluoro-5-(trifluoromethyl)benzamide], for which the “duration of elevated mechanical thresholds” value (“duration” below) in data set [1] was “approximately 4 hours”. Besides, the “mechanical pain threshold of left hindpaw (allodynia)” value (“mechanical pain threshold” below) in data set [1] (setting [11]) is listed as “elevated mechanical thresholds; also recorded: reduced allodynia”. Moreover, in data set [2], the “order of analgesic efficacy against allodynia” value is recorded as “EXAMPLE-128>Z944>EXAMPLE-130”.

Take `CC(C)(C)CCN1C[C@@H]2[C@@H](CNC(=O)c3cc(Cl)cc(Cl)c3)[C@@H]2C1` [ML218, 3,5-Dichloro-N-[[(1α,5α,6-exo,6α)-3-(3,3-dimethylbutyl)-3-azabicyclo[3.1.0]hex-6-yl]methyl]benzamide, reference compound]: in data set [3], the recovery is 97.1% and the fraction unbound is 0.046. In addition, in [4], the “Rat PK AUCtotal (μM*h)” value amounted to 0.071 h/µM; the AUC stood at 0.007 µM·h; the bioavailability (usually dose-corrected exposure relative to a reference, in per cent) is 28%. For the same compound, the half-life in [4] (setting [12]) was 236 h. In addition, in data set [5], the microsomal CLint worked out at 1.1 µL/min/mg and the half-life was determined as 10.5 h. Moreover, in data set [6], the recovery came out at 94.9% and the fraction unbound is 0.108. Further, in data set [7], the “Plasma Stability @ 5 h % (Human)” value is recorded as 97.9/ %. The “SNI-Model Mechanical % of baseline” value in data set [8] is reported as 45 ± 11 % of baseline. Further, in data set [9], the microsomal CLint is 5.5 µL/min/mg and the half-life was found to be 2.1 h. In addition, the “Plasma Stability @ 5 h % (Rat)” value in data set [10] worked out at 99.2%.

Regarding `CC(C)(C)NC(=O)CN1CCC(CNC(=O)c2cc(F)cc(Cl)c2)CC1` [Z944, reference compound], in [3], the recovery came out at 93.6% and the fraction unbound was 0.064. Moreover, in data set [4], the “Rat PK AUCtotal (μM*h)” value was 0.51 h/µM, the AUC was determined as 0.14 µM·h and the bioavailability worked out at 55%. Further, the half-life in [4] (setting [12]) was 1.5 h. The half-life in data set [4] (po, read-out: Plasma t1/2 (h) po (converted)) is 2.26 h. In addition, in data set [1], the “duration” value is reported as “approximately 4 hours”. Also, the “mechanical pain threshold” value in data set [1] (setting [11]) was “elevated mechanical thresholds; also recorded: reduced allodynia”. Further, in data set [2], the “order of analgesic efficacy against allodynia” value is reported as “EXAMPLE-128>Z944>EXAMPLE-130”. Besides, the “SNL Model Mechanical % of baseline” value in data set [2] (pain in rats, 30 mg/kg, P.O.) is listed as 94 ± 38 % of baseline. In data set [5], the microsomal CLint was found to be 5.5 µL/min/mg and the half-life is 2.1 h. Moreover, in data set [6], the recovery amounted to 91.1% and the fraction unbound is 0.287. Besides, the “Plasma Stability @ 5 h % (Human)” value in [7] was 100/ %. Moreover, the “SNI-Model Mechanical % of baseline” value in [8] is listed as 28 ± 18 % of baseline. For the same compound, in data set [9], the microsomal CLint was 13.2 µL/min/mg and the half-life came to 0.875 h. The “Plasma Stability @ 5 h % (Rat)” value in [10] is reported as 100%.

Consider `O=C(Nc1nnc(-c2ccccc2)o1)c1ccc(Cl)s1` [Example 115, 5-Chloro-N-(5-phenyl-1,3,4-oxadiazol-2-yl)thiophene-2-carboxamide], for which, in [1] (30 mg/kg I.P., thermal and mechanical thresholds), the “start of drug action post-injection” value was “around 1 hour”. Also, the “mechanical pain threshold” value in [1] (30 mg/kg, 1 mL I.P.) was “elevated both thermal and mechanical thresholds; also recorded: reduced allodynia”.

Consider `CC(C)(C)NC(=O)CN1CCC2(CC1)C[C@H]2C(=O)Nc1cc(C(F)(F)F)cc(C(F)(F)F)c1` (single isomer, unassigned) [Example 132, (R)—N-(3,5-Bis(trifluoromethyl)phenyl)-6-(2-(tert-butylamino)-2-oxoethyl)-6-azaspiro[2.5]octane-1-carboxamide or (S)—N-(3,5-Bis(trifluoromethyl)phenyl)-6-(2-(tert-butylamino)-2-oxoethyl)-6-azaspiro[2.5]octane-1-carboxamide], for which, in data set [1], the “duration” value is “approximately 4 hours”. The “mechanical pain threshold” value in data set [1] (setting [11]) is given as “elevated mechanical thresholds; also recorded: reduced allodynia”.
